In patent publication US7799738B2, “Insecticidal 2-acylaminothiazole-4-carboxamides” (Bayer CropScience AG, priority 2005, dated 2010):

Test system: Spodoptera litura
Assay: Test for embryos of Spodoptera litura (sweet potato leaf dip)
Type: in vivo
Conditions: effective ingredient concentration 20 ppm; 3 instar, sweet potato leaves immersed; dead counted after 7 days, 25° C.
Description: Preparation of Sample Drug Solution
1 Part by weight of the active compound was mixed with the above-mentioned amount of a solvent containing the above-mentioned amount of emulsifier in order to prepare the formulation of an appropriate active compound, and the mixture was diluted with water to a predetermined concentration.
The leaves of sweet potato were immersed in a sample drug solution which was diluted with water to a predetermined concentration and charged in a petri dish with a diameter of 9 cm after drying the drug solution. 10 of embryos with 3 instar of Spodoptera litura were dropped thereto, the petri dish was placed in a constant temperature chamber at 25° C., the leaves of sweet potato were additionally added after 2 days and 4 days and the number of dead embryos was examined after 7 days to calculate an insecticidal rate.
In the present test, the result of 2 petri dishes per one partition was averaged.

SMILES	insecticidal rate [%]
Cc1cc(C(F)(C(F)(F)F)C(F)(F)F)cc(C)c1NC(=O)c1csc(NC(=O)c2cccc(Cl)c2)n1 [compound 67, 2-(3-chlorobenzoyl)amino-N-(2,6-dimethyl-4-heptafluoro-isopropylphenyl)-1,3-thiazole-4-carboxamide]	100
Cc1cc(C(F)(C(F)(F)F)C(F)(F)F)cc(C)c1NC(=O)c1csc(NC(=O)c2ccccc2Cl)n1 [compound 34, 2-(2-chlorobenzoyl)amino-N-(2,6-dimethyl-4 heptafluoroisopropylphenyl)-1,3-thiazole-4-carboxamide]	100
